EP0610377B1, “TRI-SUBSTITUTED TETRAHYDROFURAN ANTIFUNGALS” (SCHERING CORPORATION, priority 1991, dated 1993)

Columns and labels:
Format in all cases: in vivo
Aspergillus flavus [1] = assay: Aspergillus flavus pulmonary infection model in compromised mice, oral treatment; conditions: for %SURVIVAL / %ANIMALS NEG: 33 mg/kg PO [3RX/DAY] for 4 days, 18 days post infection; for %SURVIVAL: compromised CF-1 mice; for %ANIMALS NEG: negative = <10 colonies
Aspergillus flavus [2] = assay: as above; conditions: for %SURVIVAL / %ANIMALS NEG: 18 days post infection; for %SURVIVAL: compromised CF-1 mice; for %ANIMALS NEG: negative = <10 colonies
Excerpt: The in vivo oral antifungal activity of the compounds of Example 23-26 were compared to those of itraconazole, fluconazole and saperconazole in an Aspergillus pulmonary infection model in mice. The procedure of David Loebenberg et al. entitled "Sch 42427, The Active Enantiomer of Antifungal agent Sch 39304: In Vitro and In Vivo Activity" Antimicrobial Agents and Chemotherapy (1992), 36 498-501 was used. The Aspergillus flavus pulmonary model was run in the following manner Male, CF-1 mice weighing 20 grams were compromised with cortisone acetate (100 mg/kg), administered subcutaneously, once daily for 3 days. In addition, to prevent bacterial disease, tetracycline HCL (300 mg/1) was added to the drinking water and given ad libitum. On day 2 of compromising, mice were infected in an inhalation chamber, first described by Piggot and Emmons in 1960 and modified by us. The chamber is a 1 liter pyrex, thick-walled flask with 8 tubular side-arms that extend into the flask. Each side-arm is a pyrex tube of 14 cm length, constricted to a 1 cm opening inside the flask. The bottom of the flask was covered with a malt extract agar medium on which a sporulating culture of A. flavus ATCC 24133 was grown for 13 days at room temperature. The top of the flask was closed with a #10 stopper through which passed a glass tube attached by rubber tubing to a 60 mL syringe. Mice were placed in each of the side arms and pushed to the bottoms so that their nares extended beyond the open end of the tube and over the agar. Cotton plugs were then inserted behind the mice to hold them in place. By pumping the 60 mL syringe twice, air was forced over the culture and produced a cloud of spores. Mice were exposed to the spore cloud for one minute. Within 15-30 minutes after exposure, a number of mice were sacrificed and lung tissue samples homogenized for culture to determine the number of inhaled conidia. Oral treatment began 24 h post-infection with doses of 5 to 250 mg of drug/kg in ethanol; vehicle (115 ml of Emulphor EL-719P, GAF, Wayne, NJ; and 5 ml of 20% w/v lactic acid per liter of water), 10:90 v/v, once daily for 4 days.
The procedure of Example 31 was used to compare the in vivo oral antifungal activity of (±)-5R/S-(cis)-4-[4-[4-[4-[[5-(2,4-difluorophenyl)-5-(1H-1,2,4-triazol-1-ylmethyl) tetrahydrofuran-3-yl]methoxy-phenyl-1-piperazinyl]phenyl]-2,4-dihydro-2[(R/S)-(1-methylpropyl)]-3H-1,2,4-triazol-3-one with (±)-2R/S-(cis)-1-[4-[[2-(2,4-difluorophenyl)-2-(1H-1,2,4-triazol-1-ylmethyl) tetrahydro-4-furanyl]methoxy]phenyl]-4-(1-methylethyl)piperazine of Example 68 of USP 5,039,676 in an Aspergillus pulmonary infection model described in Example 31. […]
The procedures of Examples 31 and 34 were used.

C. albicans C-43 = assay: Candida systemic model in CF1 mice infected IV with C. albicans C-43, oral treatment; conditions: for %SURVIVAL: day 4 post-infection; for CFUs (GM): day 4
Experimental: The compounds of Examples 23-26 and itraconazole, fluconazole, and saperconazole were tested for in vivo oral antifungal activity in a Candida systemic model using CF1 male mice , average weight 20 g, Harlan Sprague Dawley, Inc., Indianapolis, Ind. infected by IV injection into the tail vein of C. albicans C-43 (5 million CFUs). […] Oral efficacy was measured after four (4) days by percent survival and by the number of organisms remaining in the kidneys i.e., the Colony Forming Units (CFUs). The mice were sacrificed and the kidneys of individual mice were homogenized in sterile saline, diluted and spread onto Mycosel agar. Colony counts were determined after 48 hours at 37°C. For calculation of geometric means, mice that died during the experiment were considered to have 10^9 CFUs/kidneys (based on numerous previous experiments).

C. albicans C-65 = assay: Candida systemic model in normal and compromised CF1 mice infected with C. albicans C-65, oral treatment; conditions: for % S (Percent Survival): day 4 post-infection; for CFUs (GM): day 4, geometric mean of the logarithms of CFU in the kidneys
Experimental: The compounds of Examples 23-26 and itraconazole, fluconazole, and saperconazole were tested for in vivo oral antifungal activity in a Candida systemic model using CF1 male mice , average weight 20 g, Harlan Sprague Dawley, Inc., Indianapolis, Ind. infected by IV injection into the tail vein of C. albicans C-43 (5 million CFUs). The drugs were dissolved in polyethylene glycol-200 (PEG-200) and tested by orally administering 50, 25 and 10 mpk of each drug 4 hours post infection and once daily for 3 more days. Oral efficacy was measured after four (4) days by percent survival and by the number of organisms remaining in the kidneys i.e., the Colony Forming Units (CFUs). The mice were sacrificed and the kidneys of individual mice were homogenized in sterile saline, diluted and spread onto Mycosel agar. Colony counts were determined after 48 hours at 37°C. For calculation of geometric means, mice that died during the experiment were considered to have 10^9 CFUs/kidneys (based on numerous previous experiments).
The compounds of Examples 23-24 and itraconazole, fluconazole, were tested for in vivo oral antifungal anctivity in a Candida systemic model using normal and compromised CF1 mice infected with C. albicans C-65 (5 million CFUs). The procedure of Example 33 was followed. The drugs were dissolved in polyethylene glycol-200 ("PEG-200) at room temperature and tested by orally administering 100, 50, 25, 10 and 1 mpk of each drug. Oral efficacy was measured by percent survival and by the number of organisms remaining in the kidneys (CFUs) after four days. […] The pharmaceutical composition of the preferred compound of formula IIb of Eample 24 in hydroxypropyl beta cyclodextrin ("HPβCD") having 7.4 hydroxypropyl groups per HPβCD (obtained from Pharmatec, Inc., Alachua, FL 32615) was prepared by admixing the appropriate amount of the compound IIa with a 40% (w/v) solution of HPβCD (4 g of HPβCD per 10 mL of purified water). Gentle heating was used to form a clear solution. For the 10 mpk dose, 12 mg of Ha was added to 6 mL of a 40% w/v solution of HPβCD. For dilutions, sterile water was added to the solution with mixing. The pharmaceutical composition of itraconazole and the Pharmatec HPβCD described above was prepared as follows. Propylene glycol (10 mL) was admixed with 0.95 mL of concentrated HCI at 40°-45°C with stirring. Itraconazole (2.5 g) was added thereto and stirring was continued until homogeneous. The mixture so formed was cooled to 20° to 30°C and admixed with a solution of 60 g of HPβCD in 40 mL of purified water to form a clear solution. The pH was adjusted to a value of 1.9-2.1 with 10N NaOH and sufficient purified water added (with mixing) to a final volume of 100 mL. For dilutions, sterile water was added to the itraconazole - HPβCD.

[3] = 50 mg/kg PO in PEG-200, OD for 4 days, CF-1 mice
[4] = 100 mg/kg PO in PEG-200, OD for 4 days, CF-1 mice
[5] = 200 mg/kg PO in PEG-200, OD for 4 days, CF-1 mice
[6] = 10 MPK PO in PEG-200, 1 a day x 4 days
[7] = 10 MPK PO in PEG-200, geometric mean of the logarithms of CFU remaining in the kidneys (dead mice counted as 10^9)
[8] = 25 MPK PO in PEG-200, 1 a day x 4 days
[9] = 25 MPK PO in PEG-200, geometric mean of the logarithms of CFU remaining in the kidneys (dead mice counted as 10^9)
[10] = 50 MPK PO in PEG-200, 1 a day x 4 days
[11] = 50 MPK PO in PEG-200, geometric mean of the logarithms of CFU remaining in the kidneys (dead mice counted as 10^9)
[12] = 33 mg/kg PO once a day for 4 days
[13] = 66 mg/kg PO once a day for 4 days
[14] = 100 mg/kg PO once a day for 4 days

Row | Structure (SMILES) | Percent Survival After 11 Days (Aspergillus flavus [1]; [3]) | Percent Survival After 11 Days (Aspergillus flavus [1]; [4]) | Percent Survival After 11 Days (Aspergillus flavus [1]; [5]) | %SURVIVAL (Aspergillus flavus [1]) [%] | %ANIMALS NEG (Aspergillus flavus [1]) [%] | %SURVIVAL (C. albicans C-43; [6]) [%] | CFUs (GM) (C. albicans C-43; [7]) | %SURVIVAL (C. albicans C-43; [8]) [%] | CFUs (GM) (C. albicans C-43; [9]) | %SURVIVAL (C. albicans C-43; [10]) [%] | CFUs (GM) (C. albicans C-43; [11]) | %SURVIVAL (Aspergillus flavus [2]; [12]) [%] | %ANIMALS NEG (Aspergillus flavus [2]; [12]) [%] | %SURVIVAL (Aspergillus flavus [2]; [13]) [%] | %ANIMALS NEG (Aspergillus flavus [2]; [13]) [%] | %SURVIVAL (Aspergillus flavus [2]; [14]) [%] | %ANIMALS NEG (Aspergillus flavus [2]; [14]) [%] | also measured
1 | CCC(C)n1ncn(-c2ccc(N3CCN(c4ccc(OC[C@@H]5CO[C@@](Cn6cncn6)(c6ccc(F)cc6F)C5)cc4)CC3)cc2)c1=O (mixture of isomers) [Compound 1 of Table III of Examples 34, (±)-5R/S-(cis)-4-[4-[4-[4-[[5-(2,4-difluorophenyl)-5-(1H-1,2,4-triazol-1-ylmethyl)tetrahydrofuran-3-yl]methoxyphenyl-1-piperazinyl]phenyl]-2,4-dihydro-2[(RS)-(1-methylpropyl)]-3H-1,2,4-triazol-3-one] | 16.7 | 41.7 | 50.0 |  |  |  |  |  |  |  |  |  |  |  |  |  |  | PERCENT SURVIVAL AFTER 5 DAYS (5D) (Aspergillus flavus [1]; head prints 50 mg/kg (third dose column, c3), in PEG-200 daily for 4 days, CF-1 mice): 50
2 | CC(C)N1CCN(c2ccc(OC[C@@H]3CO[C@@](Cn4cncn4)(c4ccc(F)cc4F)C3)cc2)CC1 (racemic) [Example 68 of US Patent 5,039,676, (±)-2R/S-(cis)-1-[4-[[2-(2,4-difluorophenyl)-2-(1H-1,2,4-triazol-1-ylmethyl)tetrahydro-4-furanyl]methoxy]phenyl]-4-(1-methylethyl)piperazine, reference compound] | 0 | 0 | 0 |  |  |  |  |  |  |  |  |  |  |  |  |  |  | oral activity in the Aspergillus pulmonary mouse model (Aspergillus flavus [2]; PO, result in words (active / inactive)): inactive
3 | CC[C@H](C)n1ncn(-c2ccc(N3CCN(c4ccc(OC[C@H]5CO[C@](Cn6cncn6)(c6ccc(F)cc6F)C5)cc4)CC3)cc2)c1=O [Example 25, (+)-[(5S)-cis]-4-[4-[4-[4-[[5-(2,4-Difluorophenyl)-5-(1H-1,2,4-triazol-1-ylmethyl)tetrahydrofuran-3-yl]methoxy]phenyl]-1-piperazinyl]phenyl]-2,4-dihydro-2-[(1S)-(1-methylpropyl)]-3H-1,2,4-triazol-3-one] |  |  |  | 20 | 10 | 0 | 9.00 | 0 | 9.00 | 0 | 9.00 | 0 | 0 | 0 | 0 | 10 | 0 | 
4 | CC[C@@H](C)n1ncn(-c2ccc(N3CCN(c4ccc(OC[C@H]5CO[C@](Cn6cncn6)(c6ccc(F)cc6F)C5)cc4)CC3)cc2)c1=O [Example 26, (+)-[(5S)-cis]-4-[4-[4-[4-[[5-(2,4-Difluorophenyl)-5-(1H-1,24-triazol-1-ylmethyl)tetrahydrofuran-3-yl]methoxy]phenyl]-1-piperazinyl]phenyl]-2,4-dihydro-2-[(1R)-(1-methylpropyl)]-3H-1,2,4-triazol-3-one] |  |  |  | 0 | 0 | 0 | 9.00 | 0 | 9.00 | 20 | 7.84 | 0 | 0 | 0 | 0 | 20 | 0 | 
5 | OC(Cn1cncn1)(Cn1cncn1)c1ccc(F)cc1F [Fluconazole, reference compound] |  |  |  |  |  |  |  |  |  |  |  |  |  |  |  | 10 | 0 | % S (Percent Survival) (C. albicans C-65; 600 Rads Mice (compromised), 10 MPK PO in PEG-200, 1/day x 4 days): 20%; CFUs (GM) (C. albicans C-65; 600 Rads Mice (compromised), 10 MPK PO in PEG-200): 8.01; % S (Percent Survival) (C. albicans C-65; 600 Rads Mice (compromised), 25 MPK PO in PEG-200, 1/day x 4 days): 50%; CFUs (GM) (C. albicans C-65; 600 Rads Mice (compromised), 25 MPK PO in PEG-200): 6.91; % S (Percent Survival) (C. albicans C-65; Normal Mice, 1 MPK PO in PEG-200, 1/day x 4 days): 60%; CFUs (GM) (C. albicans C-65; Normal Mice, 1 MPK PO in PEG-200): 5.81; % S (Percent Survival) (C. albicans C-65; Normal Mice, 10 MPK PO in PEG-200, 1/day x 4 days): 80%; CFUs (GM) (C. albicans C-65; Normal Mice, 10 MPK PO in PEG-200): 5.35; %SURVIVAL (C. albicans C-43; 1 MPK PO in ETOH/Mon, 1 a day x 4 days): 70%; CFUs (GM) (C. albicans C-43; 1 MPK PO in ETOH/Mon, geometric mean of the logarithms of CFU remaining in the kidneys): 6.58; %SURVIVAL (C. albicans C-43; 10 MPK PO in ETOH/Mon, 1 a day x 4 days): 90%; CFUs (GM) (C. albicans C-43; 10 MPK PO in ETOH/Mon, geometric mean of the logarithms of CFU remaining in the kidneys): 5.68
